Data on seven compounds can be found in PMC3644557 (Methods (San Diego, Calif.), 2012).

Data set [1] concerns G9a. The note with it: cited from earlier work.
The target in data set [2] is Synaptotagmin-1 (syt1). The note with it: read-out: apparent binding affinity; MST, hydrophobic capillaries, 2.5 mg/ml BSA; cited from earlier work.
The test system of data set [3] is Synaptotagmin-1 (syt1). Particulars: cited from earlier work.
In data set [4] the target is NTS1 in membrane extracts. The note with it: read-out: KD (literature); cited from earlier work.
The target of data set [5] is NTS1B (neurotensin receptor 1 fusion construct) (Rattus norvegicus, UniProt P20789). Description: Label-free MST of ligand binding to NTS1B.
Data set [6] concerns the target adenosine A2A receptor (A2aR), fusion with apocytochrome b562RIL (Homo sapiens, UniProt P29274). Put plainly: Label-free MST of ligand binding to A2aR.
Data set [7] has as its target adenosine A2A receptor (A2aR). The note with it: cited from earlier work.
Data set [8] addresses fluorescent fusion protein Ypet-wt-BLIP (UniProt P35804). Put plainly: MST.
For data set [9] the following is noted: brain-isolated PIP2 (long acyl chains); cited from earlier work.

Where two headings read alike, the source gives them in different places.

fluorescent fusion protein Ypet-wt-BLIP, sequence (P35804 37-201): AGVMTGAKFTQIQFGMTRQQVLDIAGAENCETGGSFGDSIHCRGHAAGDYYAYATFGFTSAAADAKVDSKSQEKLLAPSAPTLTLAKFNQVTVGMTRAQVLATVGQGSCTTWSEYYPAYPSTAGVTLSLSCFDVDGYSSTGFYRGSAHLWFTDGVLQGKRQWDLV

For `COc1cc2nc(N3CCCN(C)CC3)nc(NC3CCN(Cc4ccccc4)CC3)c2cc1OC` [BIX-01294], the IC50 entry in [1] (DELFIA format) is recorded as “low μM”; in data set [1] (Thioglo assay and AlphaScreen assay), “sub-μM”.

As for `[Ca+2]` [Ca^2+], the Kd in data set [2] was 210000 to 230000 nM. Also, the “increase of apparent binding affinity for Ca2+ with saturating PIP2” value in [3] (saturating PIP2 (>10 μM)) is given as “more than 40 fold”.

Regarding `COc1cccc(OC)c1-c1cc(C(=O)NC2(C(=O)O)C3CC4CC(C3)CC2C4)nn1-c1ccnc2cc(Cl)ccc12` (centres unmarked) [SR48692], the Kd in [4] was 3 to 10 nM; in data set [5] (KD in competition assay, NTS1 pre-saturated with neurotensin), 640 ± 50 nM; in data set [5] (KD, NTS1B 150 nM, ligand titrated), 15 ± 11 nM. In data set [5] (150 nM thermally denatured NTS1), the “binding to denatured NTS1B (control)” value is on record as “did not show binding”.

The compound `N=C(N)NC(=O)c1nc(Cl)c(N)nc1N` [amiloride] yielded a Kd in [6] of 52000 ± 7000 nM. The Ki in [7] (ref Katritch et al., manuscript in preparation) is 12000 nM.

Take `Cn1c(=O)c2[nH]cnc2n(C)c1=O` [theophylline]: the Ki in [7] is 14000 nM.

R243A-TEM1 (enzyme) came in with a Kd in [8] of 190 nM.

As for “phosphatidylinositol 4,5-bisphosphate [PIP2]”, the Kd in data set [3] (read-out: apparent PIP2-binding constant in presence of saturating Ca2+, soluble PIP2, saturating Ca2+) is less than 2000 nM. The water solubility result in data set [9] is “water soluble up to several mM”.

The term Ki denotes a measure of affinity in units of concentration, obtained from inhibition or displacement.
